Test results taken from patent publication US20130095505A1, “DETECTION OF LIPID OXIDISING ABZYMES IN SAMPLES” (priority 2005, published 2013).
Entries after “also recorded” stand apart in the source; their conditions may differ. Read-outs that look alike come from different tables or passages of the source.

Key:
anti-Chlamydia abzymes [1] = type: biochemical, human
Protocol: (§1) For chemical inactivation, a diluent solution was divided into two portions. In one portion, an abzyme inhibitor was added.
(§2) The serum sample was split in two aliquots and one aliquot was diluted by solution containing the abzyme inhibitor, the second aliquot was diluted by the control solution. The aliquots were then tested in the same fashion.
Lipid peroxidation was assessed as a level of MDA concentration, which was measured by spectrophotometric methods [Draper, H. H. et al Free Radio. Biol. Med. (1993) 15, 353]. Briefly, the level of abzymes in a sample was determined as follows: Samples of sera were diluted 1:1 by 0.05M acetate buffer pH 4.0 to make the final pH of these samples between 5.6-5.8. 994 μl of the diluted serum was mixed with 10 μl of the commercial live ovine Chlamydia vaccine (Intervet). Samples were incubated overnight (12-16 hours) at 37° C. 250 μl of 40% trichloroacetic acid and 250 μl of 1 mM 2-thiobarbituric acid was added to each sample. All samples were placed in a water bath and boiled for 30 minutes. Samples were cooled down and centrifuged at 3,000 g for 10 minutes. The supernatants were collected and their absorption measured at λ525 nm to determine the concentration of malondialdehydes (MDA), which are products of lipid peroxidation.

anti-Chlamydia abzymes [2] = type: biochemical, human; remark: listed apart in the source
Protocol: as §1, §2
ELISA assays were performed using Medac materials and reagents, which were used in accordance with the manufacturers instructions.
Briefly, serum samples from patients were treated as described above. 50 μl of sample diluent was pipetted into microtitre well Al as blank, and 50 μl of the negative control, Positive Control and the diluted patients' samples were pipetted into other microtitre wells. The microplate wells were incubated for 60 min (±5 min) at 37° C. (±1° C.) in a humid chamber and then washed three times with 200 μl wash buffer per well. 50 μl of Conjugate was then added to each well and the microplate wells incubated again for 60 min (±5 min) at 37° C. (±1° C.) in a humid chamber and then washed. 50 μl of TME-Substrate, was added to each well and the microplate wells incubated for 30 min (±2 min) at 37° C. (±1° C.) in a humid chamber. The reaction was stopped by adding 100 μl of Stop Solution, to each well.
Photometric reading was performed at 450 nm (ref. 620-650 nm) within 15 min after adding the Stop Solution.
To calculate the results, the OD value of the blank (well Al) was subtracted from all other OD values. […] Cut-off=mean OD value of the Negative Control+0.380. Grey zone=Cut-off±10%
If there was a difference between 10 and 15% (or an increase in one titer in MIF) of the signal between treated and non-treated samples the conclusion was that the activity of the abzymes was unclear, or in the “grey” zone.

[3] = serum with live ovine Chlamydia vaccine, pH 5.6-5.8, overnight 37° C.
[4] = serum diluted with inhibitor solution vs control solution
[5] = summary in text, tested by ELISA and the lipid oxidation assay

Row | Compound | Inhibition of abzymes ability to cause: Serum lipid peroxidation, in MDA assay (anti-Chlamydia abzymes [1]; pH 5.6) | Inhibition of abzymes ability to cause: Damage of Chlamydia pneumoniae antigen, in ELISA (anti-Chlamydia abzymes [2]) | Inhibition of abzymes ability to cause: Serum lipid peroxidation, in MDA assay (anti-Chlamydia abzymes [1]; [3]) | Inhibition of abzymes ability to cause: Damage of Chlamydia pneumoniae antigen, in ELISA (anti-Chlamydia abzymes [2]; [4]) | further results
1 | O=C(O)CN(CCN(CC(=O)O)CC(=O)O)CC(=O)O [EDTA] | Positive | Positive | – | – | Inhibition of abzyme activity (statement in text) (anti-Chlamydia abzymes [2]): inhibit abzyme activity
2 | O=C1O[C@H]([C@@H](O)CO)C(O)=C1O [Ascorbic acid] | – | – | Positive | Positive | Inhibition of abzyme activity (statement in text) (anti-Chlamydia abzymes [2]; [5]): inhibit abzyme activity; Inhibition of abzyme activity (statement in text) (anti-Chlamydia abzymes [2]; summary in text, tested by ELISA and the lipid oxidation assay, listed as ascorbic acid): abzyme inhibitors
3 | OC[C@@H](O)[C@@H](O)[C@H](O)[C@H](O)CO [D-Mannitol] | – | – | Negative | Negative | –
4 | (+) Catechin gallate | – | – | Positive | Positive | Inhibition of abzyme activity (statement in text) (anti-Chlamydia abzymes [2]; summary in text, tested by ELISA and the lipid oxidation assay, listed as (+) catechin gallate): abzyme inhibitors; Inhibition of abzyme activity (statement in text) (anti-Chlamydia abzymes [2]; summary in text, tested by ELISA and the lipid oxidation assay, listed as catechin gallate): inhibit abzyme activity; also recorded: abzyme inhibitors
5 | CC[C@H]1OC(=O)[C@H](C)C(=O)[C@H](C)[C@@H](O[C@@H]2O[C@H](C)C[C@H](N(C)C)[C@H]2O)[C@](C)(OC)C[C@@H](C)C(=O)[C@H](C)[C@H]2N(CCCCn3cnc(-c4cccnc4)c3)C(=O)O[C@]12C [Telithromycin, Ketek, Telithromycin] | – | – | Positive | Positive | Inhibition of abzyme activity (statement in text) (anti-Chlamydia abzymes [2]; summary in text, tested by ELISA and the lipid oxidation assay, listed as telithromycin): abzyme inhibitors; Inhibition of abzyme activity (statement in text) (anti-Chlamydia abzymes [2]; summary in text, tested by ELISA and the lipid oxidation assay, listed as telithromycin ketek): inhibit abzyme activity; Inhibition of abzyme activity (statement in text) (anti-Chlamydia abzymes [2]; summary in text, tested by ELISA and the lipid oxidation assay, listed as telithromycin-ketek): abzyme inhibitors
6 | CC(=O)Oc1ccccc1C(=O)O [Acetyl salicylic acid] | – | – | Positive | Positive | Inhibition of abzyme activity (statement in text) (anti-Chlamydia abzymes [2]; tested by ELISA and the lipid oxidation assay): inhibit abzyme activity; also recorded: abzyme inhibitors
7 | Haemoglobin | Positive | Positive | – | – | Inhibition of abzyme activity (statement in text) (anti-Chlamydia abzymes [2]): inhibit abzyme activity; also recorded: abzyme inhibitors
8 | Cc1c(C)c2c(c(C)c1O)CC[C@@](C)(CCC[C@H](C)CCC[C@H](C)CCCC(C)C)O2 [(+) α-Tocopherol] | – | – | Negative | Negative | –
9 | CC(C)=CCC/C(C)=C/C=C/C(C)=C/C=C/C(C)=C/C=C/C=C(C)/C=C/C=C(C)/C=C/C=C(\C)CCC=C(C)C [Lycopene] | – | – | Negative | Negative | –
10 | Cc1c(O)cc2c(c1C)O[C@](C)(CCC[C@H](C)CCC[C@H](C)CCCC(C)C)CC2 [(+) y-Tocopherol] | Negative | Negative | – | – | –
11 | O=C(O)c1ccccc1 [Benzoic acid] | Negative | Negative | – | – | –
12 | CC[C@H]1OC(=O)[C@H](C)[C@@H](O[C@H]2C[C@@](C)(OC)[C@@H](O)[C@H](C)O2)[C@H](C)[C@@H](O[C@@H]2O[C@H](C)C[C@H](N(C)C)[C@H]2O)[C@](C)(O)C[C@@H](C)CN(C)[C@H](C)[C@@H](O)[C@]1(C)O [azithromycin] | – | – | – | – | Inhibition of abzyme activity (statement in text) (anti-Chlamydia abzymes [2]; [5]): abzyme inhibitors
13 | O=C(O)CN(CCOCCOCCN(CC(=O)O)CC(=O)O)CC(=O)O [EGTA] | – | – | – | Positive | Inhibition of abzyme activity (statement in text) (anti-Chlamydia abzymes [2]; [5]): inhibit abzyme activity
14 | C[S+](C)[O-] [DMSO] | – | – | Positive | Positive | Inhibition of abzyme activity (statement in text) (anti-Chlamydia abzymes [2]; [5]): inhibit abzyme activity; also recorded: abzyme inhibitors; Inhibition of abzyme activity (statement in text) (anti-Chlamydia abzymes [2]; tested by ELISA and the lipid oxidation assay, listed as DMS): abzyme inhibitors
15 | CC1=C(/C=C/C(C)=C/C=C/C(C)=C/C=C/C=C(C)/C=C/C=C(C)/C=C/C2=C(C)CCCC2(C)C)C(C)(C)CCC1 [β-Carotene] | Negative | Negative | – | – | –
